Where “and” joins values, the source holds several entries; their conditions need not be identical. Equal values may be shown once.
Key:
[1] = tested on: IN/WHO strain house flies; assay: topical application test, percent kill after 24 hours, IN/WHO strain; format: in vivo, house fly (susceptible IN/WHO strain)
Summary of the method: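 Susceptible female IN/WHO house flies, 3–5 days old, CO2-anesthetized, received synergist plus insecticide in acetone (1.0 μL) on the thorax; doses in μg/fly. Flies held 10 per dish, 3–5 dishes/treatment, with skim milk; mortality (percent kill) read at 24 h.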

[2] = tested on: German male cockroaches (Blatella Germanicus); assay: topical application to thorax, 24 hour mortality of German male cockroaches; format: in vivo, German cockroach (Blatella Germanicus)
Protocol: The synergistic effect with mobam of synergist compounds I-B, II-H, II-K and IV-C is further illustrated by the 24 hour mortality data of German male cockroaches (Blatella Germanicus) shown in Table XXXX. The synergists and insecticide were diluted in acetone and applied in small droplets to the thorax of the insect. These doses of synergist alone gave zero percent insect mortality.
The synergistic effect with GS 13005 of compounds I-B, II-H, II-K, II-P, II-Q, II-R and IV-C is illustrated by the 24 hour mortality of German male cockroaches shown in Table XXXXI. These doses of synergist alone caused zero percent insect mortality.

[3] = tested on: polyvalent resistant (CH strain) houseflies; assay: whole plant or invertebrate; format: in vivo, housefly (CH strain); conditions: for percent kill after 24 hours: CH strain
Protocol: The effect of O-(2-propynyl) oximes with Dimetilan and with GS 13798 was obtained from tests on polyvalent resistant (CH strain) houseflies that had been chilled and to the dorsal region of which was applied an acetone solution of synergist and insecticide at a ratio of two to one. Duplicate tests were performed using 10 four to five-day old female houseflies per test. After dosage, the flies were put in a plastic petri dish with cotton soaked in a sugar-water solution. These doses of insecticide used without synergist caused 10-40% mortality.
(§1) In Table IX, and in the tables following it, the doses of topically applied insecticides and of synergists unless otherwise noted are expressed as micrograms per fly (μg/fly).
The effect of compounds II-C, II-D and II-E with Dimetilan and GS 13798 was determined, following the procedure of Example 5, from tests on polyvalent resistant (CH strain) houseflies. These doses of insecticide used without synergist caused 10-40% mortality.
(§2) The synergistic effect with GS 13005 of compounds I-A, I-B, I-D, I-E, I-F, I-G and I-I was determined from topical application tests to IN/WHO strain, Rutgers A strain and polyvalent CH strain houseflies using the procedures of Example 5. The percent kills of the IN/WHO strain flies after 24 hours are shown in Table XXVIII; of the Rutgers A strain, in Table XXIX; and of the polyvalent CH strain, in Table XXX. The doses of insecticide alone to the CH strain files caused 10-40% mortality.
(§3) The synergistic effect with Diazinon and GS 13005 of various of the benzyl 2-propynyl ethers identified in Tables II and IIa was determined by topical application tests on IN/WHO strain, and Rutgers A strain and polyvalent, resistant, CH strain houseflies using the procedures of Example 5. The percent kills after 24 hours of IN/WHO strain flies are shown in Table XXXI; of Rutgers A strain flies, in Table XXXII; and of CH strain flies, in Table XXXIII. The doses of insecticide alone to the CH strain flies caused 10-40% mortality.
The synergistic effect with pyrethrum of various synergist compounds was determined by topical application tests on polyvalent, resistant CH strain houseflies following the procedure of Example 5. Application of the insecticide alone caused 10-40% mortality.

mice [4] = assay: synergism of acute toxicity of Dimetilan, GS 13005, Secobarbital and Methadone (intraperitoneal); format: in vivo, Swiss albino white male mice; conditions: for number of mice dead: 48 hours, of eight mice
Summary of the method: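 Male Swiss albino mice (5–6 weeks, 23–27 g), eight per dose; synergist in corn oil given i.p. 1 h before i.p. insecticide or drug (drugs in distilled water). Lethality recorded over at least 6 h; controls received corn oil plus agent alone.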

[5] = tested on: Rutgers A strain house flies; assay: topical application test, percent kill after 24 hours, Rutgers A strain; format: in vivo, house fly (resistant Rutgers A strain)
Protocol: as §1
The synergistic effect of O-(2-propynyl) oximes with mobam was determined from topical application tests on susceptible, female, IN/WHO strain house flies and from tests on resistant, female, Rutgers A strain house flies. The synergist and insecticide were dissolved in ACS Grade acetone in such quantities that a 1.0μ liter volume applied to the thorax of 3-to-5 day old CO2 -anesthetized female adult house flies contained the desired dosage. After being treated, the flies were confined, 10 to a plaster petri dish, with 3-5 dishes/treatment, and held for 24-hr. observation of mortality. Reconstituted skim milk on cotton dental wicks was provided during the holding period. The percent kills after 24 hours are shown in Table X for the IN/WHO strain and Table XI for the Rutgers A strain.
The synergistic effect of benzyl 2-propynyl ethers with mobam was determined from topical application tests on IN/WHO and Rutgers A strain houseflies, following the procedure of Example 5. The percent kills after 24 hours are shown in Table XIV for the IN/WHO strain and in Table XV for the Rutgers A strain.
The synergistic effect with Diazinon of compounds I-B, I-D, I-F, I-G, I-H and I-I, identified in Tables I and Ia, was determined from topical application tests on IN/WHO strain houseflies and on Rutgers A strain houseflies by the procedure of Example 5. The percent kills after 24 hours are shown in Table XXV for the IN/WHO strain and Table XXVI for the Rutgers A strain.
as §2, §3
The synergistic effect on IN/WHO strain flies and Rutgers A strain flies of compound IV-C with GS 13005 and with Diazinon was determined by the topical application procedure of Example 5. The percent kills of IN/WHO strain flies after 24 hours are shown in Tables XXXVI and XXXVII; the percent kills of Rutgers A strain flies are shown in Tables XXXVIII and XXXIX.

[6] = tested on: Wilson strain house flies; format: in vivo, house fly (susceptible Wilson strain); conditions: for Contact Synergistic Ratio, Carbaryl (LC50 insecticide alone / LC50 with synergist): in vivo; for Contact Synergistic Ratio, Pyrolan (LC50 insecticide alone / LC50 with synergist): synergist to insecticide 5:1 by weight, 24 h
Summary of the method: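 Flies held at room temperature in glass jars coated with acetone-deposited insecticide film, alone or with synergist at 5:1 synergist:insecticide by weight; 10% sugar supplied.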

houseflies = assay: percent kill with Diazinon, Table XXVII (strain not given); format: in vivo, housefly; conditions: Diazinon 5 + synergist 10 μg/fly, 1440 min
mice [7] = assay: acute toxicity of Dimetilan alone and of synergist alone (intraperitoneal); format: in vivo, Swiss albino white male mice; conditions: synergist alone 1000 mg/kg ip, 72 hours, of eight mice
Protocol: To determine the acute toxicity of dimetilan alone, eight dosage levels of Dimetilan, ranging from 4 to 32 mg per kg wer applied to eight, Swiss, albino, white, male mice per dosage level. The mice weighed approximately 23 to 27 grams and were five to size weeks old. The Dimetilan was administered intraperitoneally in 0.1 ml of corn oil one hour after the administration of the same dose of corn oil alone.
To determine the acute toxicity of the synergist alone, various synergists were administered intraperitoneally at a dose of 1000 mg/kg to each of a group of eight mice. The number of animals dead at the end of 72 hours is reported in the left hand column of Table XXXXVI.

mice [8] = assay: extension of Noludar sleeping time by synergists; format: in vivo, Swiss albino white male mice; conditions: Noludar 110 mg/K, synergist 110 mg/K; for Relative Sleeping Time: treated/control
Summary of the method: (§4)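 Swiss albino male mice (~38 days, 25-30 g) given synergist at 74.0 or 110.0 mg/kg in corn oil 1 h before Secobarbital 37.0 mg/kg or Noludar 110.0 mg/kg in water. Sleeping time measured from drug dosing to righting-reflex recovery; relative sleeping time = treated ÷ drug-only control.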

mice [9] = assay: extension of Secobarbital sleeping time by synergists; format: in vivo, Swiss albino white male mice; conditions: Secobarbital 37 mg/K; for Relative Sleeping Time: treated/control
Summary of the method: as §4

[10] = synergist alone at doses of Table XXXXI
[11] = Dimetilan 8 mg/kg + synergist 240 mg/kg ip
[12] = GS 13005 71 mg/kg + synergist 213 mg/kg
[13] = Methadone 32 mg/kg + synergist 215 mg/kg
[14] = Secobarbital 90 mg/kg + synergist 215 mg/kg

Structure (SMILES) | Contact Synergistic Ratio, Carbaryl (LC50 insecticide alone / LC50 with synergist) [6] | Contact Synergistic Ratio, Pyrolan (LC50 insecticide alone / LC50 with synergist) [6] | number of mice dead (mice [7]) | insect mortality, synergist alone [2, 10] | Mean Sleeping Time (mice [8]) [min] | Relative Sleeping Time (mice [8]) | number of mice dead (mice [4]; [11]) | mice lethality (number dead) (mice [4]; [12]) | mice lethality (number dead) (mice [4]; [13]) | mice lethality (number dead) (mice [4]; [14]) | Mean Sleeping Time (mice [9]; synergist 74 mg/K) [min] | Relative Sleeping Time (mice [9]; synergist 74 mg/K) | Mean Sleeping Time (mice [9]; synergist 110 mg/K) [min] | Relative Sleeping Time (mice [9]; synergist 110 mg/K) | further results
COc1nn(CSP(=S)(OC)OC)c(=O)s1 [GS 13005, S-((2-methoxy-5-oxo-Δ^2-1,3,4-thiadiazolin-4-yl)methyl) O,O-dimethyl phosphorodithioate, reference compound] |  |  |  |  |  |  |  |  |  |  |  |  |  |  | percent kill after 24 hours ([1]; GS 13005 alone 0.05 μg/fly): 0%; percent kill after 24 hours ([1]; GS 13005 alone 0.10 μg/fly, 1440 min): 19% and 16% and 12%; 24 hour mortality ([2]; GS 13005 alone, dose 0.08, 1440 min): 15% and 23% and 10%; mortality at 1 µg/fly ([3]; Musca domestica, topical, 24 h, read-out: mortality, insecticide alone): 10 to 40%; mice lethality (number dead) (mice [4]; control: GS 13005 71 mg/kg in 0.1 ml corn oil): 5; percent kill after 24 hours ([5]; GS 13005 alone 1.0 μg/fly, 1440 min): 2%
C#CCON=Cc1ccc(OC)c(OC)c1 [I-A] | 200 | 30 |  |  |  |  |  |  |  |  |  |  |  |  | percent kill after 24 hours ([3]; Dimetilan 2 + synergist 4 μg/fly): 100%; percent kill after 24 hours ([3]; GS 13005 1 + synergist 2 μg/fly): 45%; percent kill after 24 hours ([3]; GS 13798 1 + synergist 2 μg/fly): 65%; percent kill after 24 hours ([3]; Pyrethrum 2 + synergist 4 μg/fly): 15%; percent kill (houseflies): 45%
C#CCOCc1c(Cl)cccc1Cl [II-H] | 300 | 40 | 0 | zero | 68 | 2.2 | 6 | 7 | 4 | 0 | 44 | 1.4 | 51 | 2.1 | insect mortality, synergist alone ([2]; synergist alone at doses of Table XXXX): zero; number of mice dead (mice [4]; Dimetilan 8 mg/kg + synergist 80 mg/kg ip): 0
C#CCOCc1ccccc1[N+](=O)[O-] [II-P, 2-nitrobenzyl 2-propynyl ether] |  |  | 2 | zero | 44 | 1.5 | 0 | 6 | 0 | 0 |  |  | 46 | 1.0 | 
C#CCOCc1ccc([N+](=O)[O-])cc1 [II-Q, 4-nitrobenzyl 2-propynyl ether] |  |  | 7 | zero | 41 | 2.1 | 1 | 6 |  |  | 30 | 1.1 | 73 | 1.6 | 
CNC(=O)Oc1cccc2sccc12 [Mobam, 4-benzo(b) thienyl-N-methylcarbamate, reference compound] |  |  |  |  |  |  |  |  |  |  |  |  |  |  | percent kill after 24 hours ([1]; Mobam alone 0.05 μg/fly): 0%; percent kill after 24 hours ([1]; Mobam alone 0.10 μg/fly): zero; percent kill after 24 hours ([1]; Mobam alone 0.10 μg/fly, 1440 min): 0%; percent mortality 24 hours ([1]; Mobam alone 0.13 μg/fly): 0%; percent kill after 24 hours ([1]; Mobam alone 0.20 μg/fly, 1440 min): 2%; percent mortality 24 hours ([1]; Mobam alone 0.50 μg/fly, 1440 min): 83%; percent mortality 24 hours ([1]; Mobam alone 1.0 μg/fly, 1440 min): 73% and 93%; change in lethality on doubling dose of mobam alone ([1]; mobam alone 0.05 to 0.10 mg/fly (so in the source)): no increase in lethality; 24 hour mortality ([2]; Mobam alone, dose 0.12): 10%; 24 hour mortality ([2]; Mobam alone, dose 0.16): 30%; percent kill after 24 hours ([5]; Mobam alone 0.15 μg/fly): 0%; percent kill after 24 hours ([5]; Mobam alone 0.30 μg/fly): 0%; percent kill after 24 hours ([5]; Mobam alone 0.40 μg/fly): 7%; percent kill after 24 hours ([5]; Mobam alone 0.60 μg/fly): 4%
